Experimental data: US20020055463A1, “Pseudopeptide compounds having an inhibiting activity with respect to paths activated by proteins with active tyrosine kinase activity and pharmaceutical compositions containing same” (priority 1998, published 2002)
Where a SMILES comes first, the peptide text is derived from it. [ ]: non-standard residue; d: D form. pY = N[C@@H](Cc1ccc(OP(=O)(O)O)cc1)C(=O)O

Key:
Grb2 [1] = target: T1, Grb2 (Homo sapiens, UniProt P62993); assay: ELISA competition test (Grb2/biotin-Aha-PSpYVNVQN displacement); assay type: binding; details: displacement of GST-Grb2 (40 ng/ml) from fixed peptide biotin-Aha-PSpYVNVQN (Shc tyrosine 317)
T1 sequence (P62993 whole entry, species assumed): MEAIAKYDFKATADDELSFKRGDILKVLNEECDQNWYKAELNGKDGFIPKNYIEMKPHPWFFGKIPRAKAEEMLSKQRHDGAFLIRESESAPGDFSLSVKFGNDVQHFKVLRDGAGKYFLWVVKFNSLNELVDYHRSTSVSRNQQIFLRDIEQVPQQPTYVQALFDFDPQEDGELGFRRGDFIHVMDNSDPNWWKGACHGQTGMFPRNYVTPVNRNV
Description: Plates pre-treated with streptavidine (Boehringer) are incubated overnight at 4° C. with 100 μl of a solution of peptide biotin-Aha-PSpYVNVQN (Aha: 6-amino-hexanoic acid) (100 nM solution in TBS buffer Tris 100 mM, NaCl 50 mM, pH 7.5) per well. The non-specific binding is then blocked by incubating for 4 hours with the same buffer containing 3% of skimmed milk ([…]). The products to be tested are distributed among the wells at the desired dilution in the abovementioned buffer containing 3% of skimmed milk and 40 ng/ml of GST-Grb2 (100 μl per well). After one night's incubation, the plates are carefully rinsed 4 times using TBS-milk-0.05% tween 20, then incubated for 2 hours at 37° C., in the presence of 100 μl per well of anti-GST antibody (transduction, dilution 1/500 in TBS-milk-0.05% tween 20). The plates are then carefully rinsed 4 times using TBS-milk-0.05% tween 20, then incubated for 45 minutes at 37° C. in the presence of 100 µl per well of anti-mouse antibody coupled with peroxidase (Amersham, 1/1000 dilution in TBS-milk-0.05% tween 20). The plates are carefully rinsed using TBS-milk-0.05% tween 20, then incubated in the presence of 200 μl per well of TMB developing solution (Interchim), until a sufficient blue coloration has developed. The reaction is then stopped by adding 100 μl of 10% (VN) sulphuric acid per well. The reading is taken at 550 nm. The value read off for each well is then reduced by the control value of an equivalent well with no fixed peptide biotin-Aha-PSpYVNVQN then treated, like its homologue, with fixed peptide. The data is then processed using “Origin 40” software to obtain the 50 inhibitory concentrations.

Grb2 [2] = target: T1, Grb2; assay: Affinity for Grb2 measured by fluorescence; assay type: binding; details: 25° C., 50 mM HEPES, 1 mM DTT, pH 7.5, emission 345 nm, excitation 292 nm, read-out: Diss. const. fluo Kd
From the text: They are expressed therein as the dissociation constant Kd.

SMILES	IC50 (Grb2 [1])	Kd (Grb2 [2])
CC(C)[C@H](NC(=O)[C@H](CC(N)=O)NC(=O)[C@@H](NC(=O)[C@H](Cc1ccc(OP(=O)(O)O)cc1)NC(=O)[C@H](CO)NC(=O)[C@@H]1CCCN1)C(C)C)C(=O)N[C@@H](CCC(N)=O)C(=O)N[C@@H](CC(N)=O)C(=O)O [PSpYVNVQN (Shc 317), reference compound] (H-PS[pY]VNVQN-OH)	0.071 µM	
C[C@@](Cc1ccc(OP(=O)(O)O)cc1)(NC(=O)[C@H](Cc1ccc(CP(=O)(O)O)cc1)NC(=O)OCc1cccc(N)c1)C(=O)N[C@@H](CC(N)=O)C(N)=O [mAZ-Pmp-(αMe)pTyr-Asn-NH2, mAZ-Pmp-(α-Me) pTyr-Asn-NH2]	0.042 µM	
CC(Cc1ccc(C(F)(F)P(=O)(O)O)cc1)(NC(=O)[C@H](Cc1ccc(OP(=O)(O)O)cc1)NC(=O)OCc1cccc(N)c1)C(=O)N[C@@H](CC(N)=O)C(N)=O (stereo partly drawn) [mAZ-pTyr-(αMe)F2Pmp-Asn-NH2, mAZ-pTyr-(D,L)(α-Me)F2Pmp-Asn-NH2]	0.064 µM	
C[C@@](Cc1ccc(CC(=O)O)cc1)(NC(=O)[C@H](Cc1ccc(OP(=O)(O)O)cc1)NC(=O)OCc1cccc(N)c1)C(=O)N[C@@H](CC(N)=O)C(N)=O [mAZ-pTyr-(αMe)Phe(CH2—COOH)-Asn-NH2, mAZ-pTyr-(αMe)Phe(4-CH2CO2H)-Asn-NH2]	0.198 µM	0.06 µM
C[C@@](Cc1ccc(C(=O)O)cc1)(NC(=O)[C@H](Cc1ccc(OP(=O)(O)O)cc1)NC(=O)OCc1cccc(N)c1)C(=O)N[C@@H](CC(N)=O)C(N)=O [mAZ-pTyr-(αMe)Phe(COOH)-Asn-NH2, mAZ-pTyr-(αMe)Phe(4-CO2H)-Asn-NH2]	0.153 µM	0.045 µM
CC(Cc1ccc(CP(=O)(O)O)cc1)(NC(=O)[C@H](Cc1ccc(OP(=O)(O)O)cc1)NC(=O)OCc1cccc(N)c1)C(=O)N[C@@H](CC(N)=O)C(N)=O (stereo partly drawn) [mAZ-pTyr-(αMe)Pmp-Asn-NH2, mAZ-pTyr-(D,L)(αMe)Pmp-Asn-NH2]	0.266 µM	0.07 µM
CC(Cc1ccc(P(=O)(O)O)cc1)(NC(=O)[C@H](Cc1ccc(OP(=O)(O)O)cc1)NC(=O)OCc1cccc(N)c1)C(=O)N[C@@H](CC(N)=O)C(N)=O (stereo partly drawn) [mAZ-pTyr-(αMe)Ppp-Asn-NH2 (D or L)]		0.0045 µM
C[C@@](Cc1ccc(O)cc1)(NC(=O)[C@H](Cc1ccc(OP(=O)(O)O)cc1)NC(=O)OCc1cccc(N)c1)C(=O)N[C@@H](CC(N)=O)C(N)=O [mAZ-pTyr-(αMe)Tyr-Asn-NH2, mAZ-pTyr-(α-Me)Tyr-Asn-NH2, reference compound]	1.1 µM	0.25 µM
C[C@@](Cc1ccc(OP(=O)(O)O)cc1)(NC(=O)[C@H](Cc1ccc(OP(=O)(O)O)cc1)NC(=O)OCc1cccc(N)c1)C(=O)N[C@@H](CC(N)=O)C(N)=O [mAZ-pTyr-(αMe)pTyr-Asn-NH2, mAZ-pTyr-(α-Me)pTyr-Asn-NH2]	0.011 µM	0.003 µM
NC(=O)C[C@H](NC(=O)C1(NC(=O)[C@H](Cc2ccc(OP(=O)(O)O)cc2)NC(=O)OCc2cccc(N)c2)CCCCC1)C(N)=O [mAZ-pTyr-Acac-Asn-NH2, reference compound]	0.12 µM	0.03 µM
NC(=O)C[C@H](NC(=O)[C@H](Cc1ccc(O)cc1)NC(=O)[C@H](Cc1ccc(OP(=O)(O)O)cc1)NC(=O)OCc1cccc(N)c1)C(N)=O [mAZ-pTyr-Tyr-Asn-NH2, reference compound]	0.497 µM	0.155 µM
NC(=O)C[C@H](NC(=O)[C@H](Cc1ccc(OP(=O)(O)O)cc1)NC(=O)[C@H](Cc1ccc(OP(=O)(O)O)cc1)NC(=O)OCc1cccc(N)c1)C(N)=O [mAZ-pTyr-pTyr-Asn-NH2, reference compound]	0.235 µM	0.06 µM
